Here are results for two molecules from PMC6155239, “Targeting PFKFB3 radiosensitizes cancer cells and suppresses homologous recombination” (Nature Communications, 2018).

Structures are written as SMILES. pIC50: −log10 of the molar value.

The target in assay [1] is PFKFB4 (Homo sapiens, UniProt Q16877). As to the kind of experiment: ADP-Glo kinase activity assay, PFKFB4. The class given is biochemical. As for the experimental part:
The kinase activity of the bi-functional enzyme was quantified based on the production of ADP and F-2,6-P2 from ATP by ADP-GloTM Kinase Assay (Promega). The assay was performed in two steps; first, after the kinase reaction, an equal volume of ADP-GloTM Reagent was added to terminate the kinase reaction and deplete the remaining ATP. Second, the Kinase Detection Reagent was added to simultaneously convert ADP to ATP and allow the newly synthesized ATP to be measured using a luciferase/luciferin reaction. The light generated was measured using a luminescence counter (1450 MicroBeta TriLux). The assay was performed in white 384-well plates (OptiPlate, 6007299, PerkinElmer) by consecutive additions of a test compound solution (0.1 µL, serial diluted in DMSO from compound DMSO stock solution and dispensed by acoustic dispensing from UV-star 384-well plate 7360153, VWR), enzyme solution (5 µL) and substrate (fructose-6-phosphate (F6P) and adenosine-5′-triphosphate (ATP)) containing solution (5 µL). […] Four reference dose–response curves, one of them being the QC compound, were included and serial diluted as the test compounds. […] The inhibitory potency or IC50 values of test compounds on the kinase activity of the enzymes were calculated using a four-parameter model (model 205) in XLfit (IDBS ActivityBase XE Runner).
Background: ADP-Glo turns the ADP formed in a reaction into a luminescent signal.

Assay [2] deals with T1, ABL1-phosphorylated (Homo sapiens, UniProt P00519).
T1 construct: purchased DiscoverX (Eurofins) KINOMEscan / scanEDGE, inferred from the naming style
As to the kind of experiment: KINOMEscan. The format is binding. The following applies: 2000 nM; read-out: Percent Control.

Assay [3] has as its target T2, AKT1 (Homo sapiens, UniProt P31749).
T2 construct: purchased DiscoverX (Eurofins) KINOMEscan / scanEDGE, inferred from the naming style
In words: KINOMEscan. The class given is binding. The settings on record: 2000 nM; read-out: Percent Control.

Assay [4] has as its target T3, BTK (Homo sapiens, UniProt Q06187).
T3 construct: purchased DiscoverX (Eurofins) KINOMEscan / scanEDGE, inferred from the naming style
As to the kind of experiment: KINOMEscan. The following applies: 2000 nM; read-out: Percent Control. The format is binding.

In assay [5] the target is T4, CHEK1 (Homo sapiens, UniProt O14757).
T4 construct: purchased DiscoverX (Eurofins) KINOMEscan / scanEDGE, inferred from the naming style
In words: KINOMEscan. The format is binding. The settings on record: 2000 nM; read-out: Percent Control.

Assay [6] has as its target T5, CSF1R (Homo sapiens, UniProt P07333).
T5 construct: purchased DiscoverX (Eurofins) KINOMEscan / scanEDGE, inferred from the naming style
As to the kind of experiment: KINOMEscan. The settings on record: 2000 nM; read-out: Percent Control. The class given is binding.

In assay [7] the target is T6, DCAMKL1 (Homo sapiens, UniProt O15075).
T6 construct: purchased DiscoverX (Eurofins) KINOMEscan / scanEDGE, inferred from the naming style
As to the kind of experiment: KINOMEscan. The following applies: 2000 nM; read-out: Percent Control. The format is binding.

In assay [8] the target is T7, EGFR (Homo sapiens, UniProt P00533).
T7 construct: purchased DiscoverX (Eurofins) KINOMEscan / scanEDGE, inferred from the naming style
In words: KINOMEscan. The settings on record: 2000 nM; read-out: Percent Control. The class given is binding.

Assay [9] deals with T8, ERBB4 (Homo sapiens, UniProt Q15303).
T8 construct: purchased DiscoverX (Eurofins) KINOMEscan / scanEDGE, inferred from the naming style
In words: KINOMEscan. The following applies: 2000 nM; read-out: Percent Control. The format is binding.

In assay [10] the target is T9, ERK1 (Homo sapiens, UniProt P27361).
T9 construct: purchased DiscoverX (Eurofins) KINOMEscan / scanEDGE, inferred from the naming style
As to the kind of experiment: KINOMEscan. The class given is binding. The settings on record: 2000 nM; read-out: Percent Control.

In assay [11] the target is T10, GSK3B (Homo sapiens, UniProt P49841).
T10 construct: purchased DiscoverX (Eurofins) KINOMEscan / scanEDGE, inferred from the naming style
As to the kind of experiment: KINOMEscan. The class given is binding. The settings on record: 2000 nM; read-out: Percent Control.

Assay [12] addresses T11, IGF1R (Homo sapiens, UniProt P08069).
T11 construct: purchased DiscoverX (Eurofins) KINOMEscan / scanEDGE, inferred from the naming style
In words: KINOMEscan. The format is binding. The following applies: 2000 nM; read-out: Percent Control.

Assay [13] deals with PFKFB3 (Homo sapiens, UniProt Q16875). In words: Cellular thermal shift assay (CETSA) in U2OS cells. The format is cell-based. The following applies: 10 µM. As for the experimental part:
U2OS cells in exponential growth rate were treated with indicated inhibitors at a concentration of 10 μM or DMSO for 6, 24, or 72 h and then harvested using trypsin, upon detachment trypsinization was inhibited by addition of cell media and cells spun down at 200 × g for 10 min at 4 °C. The pellet was resuspended in TBS (50 mM Tris–HCl (pH 7.5) and 150 mM NaCl) supplemented with protease inhibitors (Roche), cells were lysed by a freeze–thaw circle three times at −80 °C for 3 min and then 37 °C for 3 min. Debris was removed by centrifugation at 16,000 × g for 20 min at 4 °C, cell lysates were aliquoted and heated to indicated temperatures for 3 min. Insoluble proteins were then removed by centrifugation at 16,000 × g at 4 °C for 20 min, supernatant was transferred to new tubes and protein concentration was determined using BCA assay (Pierce). Western blot was performed according to standard procedures.

For assay [14], the system named is U2OS cells. In words: Intracellular dNTP measurement (HIV-1 RT-based). The format is cell-based. The settings on record: 4 h and 24 h, relative to DMSO. How it is done: HIV-1 RT-based dNTP assay[55] was used to quantify dNTP levels in U2OS cells upon indicated treatment and time points. Briefly, cells were trypsinized and counted before dNTPs extraction by 60% methanol solution, the dried dNTP samples were resuspended with water, and then RT-based primer extension reaction was performed to determine the amounts of dNTPs. Obtained dNTP amounts were normalized to 1 × 10^6 cells, and dNTP levels were related to control treatment with DMSO.

Assay [15] has as its system U2OS cells. In words: EdU labeling (DNA synthesis). The settings on record: absence of IR. The format is cell-based. How it is done:
U2OS cells were seeded on sterilized slides and treated with 10 or 30 μM of 757 for 6 h, or 2 mM of hydroxyurea (HU) for 3 h (DMSO was used as control vehicle). Last 40 min of treatment, 10 μM of the thymidine analogue 5-ethynyl-2′-deoxyuridine (EdU) (Sigma Aldrich, catalog no. 1T511285) was added; cells were washed with PBS and then fixed with paraformaldehyde 4% and sucrose 2%. For the detection of incorporated EdU, the Click IT reaction was performed in accordance with the supplier’s recommendations (Life Technologies/ThermoFisher Scientific). Images were acquired with a Zeiss LSM 780 microscope using a 40× oil immersion lens and processed in ImageJ and CellProfiler (version 2.2.0).

Assay [16] concerns U2OS cells. In words: EdU incorporation in G2/M phase upon IR, flow cytometry. The format is cell-based. The settings on record: 10 μM 6 h prior to IR 6 Gy.

Sequence of PFKFB4 (Q16877 whole entry, species assumed): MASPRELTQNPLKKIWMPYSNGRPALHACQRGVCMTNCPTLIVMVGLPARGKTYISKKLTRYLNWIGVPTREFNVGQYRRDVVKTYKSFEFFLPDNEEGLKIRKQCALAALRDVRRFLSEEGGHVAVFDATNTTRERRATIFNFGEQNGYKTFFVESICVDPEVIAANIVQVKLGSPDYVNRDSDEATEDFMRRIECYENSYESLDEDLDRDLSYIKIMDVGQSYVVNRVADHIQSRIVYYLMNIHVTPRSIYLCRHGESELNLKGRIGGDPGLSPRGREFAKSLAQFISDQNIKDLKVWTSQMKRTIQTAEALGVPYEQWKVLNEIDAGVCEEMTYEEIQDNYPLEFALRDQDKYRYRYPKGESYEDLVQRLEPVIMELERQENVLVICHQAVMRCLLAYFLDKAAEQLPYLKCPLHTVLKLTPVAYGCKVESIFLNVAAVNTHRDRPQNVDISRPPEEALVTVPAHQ
T1 sequence (P00519 whole entry): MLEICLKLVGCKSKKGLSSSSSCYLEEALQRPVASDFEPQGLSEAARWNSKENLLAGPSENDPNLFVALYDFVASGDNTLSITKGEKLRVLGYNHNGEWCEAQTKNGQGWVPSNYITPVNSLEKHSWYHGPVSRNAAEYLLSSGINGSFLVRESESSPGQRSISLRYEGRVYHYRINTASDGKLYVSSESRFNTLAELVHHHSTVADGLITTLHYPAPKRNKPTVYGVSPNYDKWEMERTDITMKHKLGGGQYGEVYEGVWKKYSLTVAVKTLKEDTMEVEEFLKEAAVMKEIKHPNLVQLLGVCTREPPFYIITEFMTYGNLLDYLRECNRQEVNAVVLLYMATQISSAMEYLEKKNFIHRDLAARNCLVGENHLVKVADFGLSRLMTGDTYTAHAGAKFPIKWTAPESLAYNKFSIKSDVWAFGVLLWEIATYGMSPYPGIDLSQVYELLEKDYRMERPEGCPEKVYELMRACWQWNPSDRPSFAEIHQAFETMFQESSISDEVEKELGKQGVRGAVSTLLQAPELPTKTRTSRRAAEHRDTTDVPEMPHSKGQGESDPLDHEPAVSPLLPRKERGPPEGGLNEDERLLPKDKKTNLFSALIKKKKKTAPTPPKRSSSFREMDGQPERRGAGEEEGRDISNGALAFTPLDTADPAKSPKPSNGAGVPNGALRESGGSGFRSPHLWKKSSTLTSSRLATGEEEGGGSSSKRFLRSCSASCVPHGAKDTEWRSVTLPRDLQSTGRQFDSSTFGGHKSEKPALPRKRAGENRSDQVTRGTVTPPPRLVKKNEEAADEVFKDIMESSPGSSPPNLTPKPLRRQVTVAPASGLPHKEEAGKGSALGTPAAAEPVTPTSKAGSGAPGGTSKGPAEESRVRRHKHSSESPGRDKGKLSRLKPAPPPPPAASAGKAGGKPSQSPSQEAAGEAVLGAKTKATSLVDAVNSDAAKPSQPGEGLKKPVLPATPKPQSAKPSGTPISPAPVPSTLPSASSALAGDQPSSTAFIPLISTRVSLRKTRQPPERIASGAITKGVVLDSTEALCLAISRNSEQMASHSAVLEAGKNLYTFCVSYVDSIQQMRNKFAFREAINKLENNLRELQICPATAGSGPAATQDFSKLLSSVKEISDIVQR
T10 sequence (P49841 whole entry): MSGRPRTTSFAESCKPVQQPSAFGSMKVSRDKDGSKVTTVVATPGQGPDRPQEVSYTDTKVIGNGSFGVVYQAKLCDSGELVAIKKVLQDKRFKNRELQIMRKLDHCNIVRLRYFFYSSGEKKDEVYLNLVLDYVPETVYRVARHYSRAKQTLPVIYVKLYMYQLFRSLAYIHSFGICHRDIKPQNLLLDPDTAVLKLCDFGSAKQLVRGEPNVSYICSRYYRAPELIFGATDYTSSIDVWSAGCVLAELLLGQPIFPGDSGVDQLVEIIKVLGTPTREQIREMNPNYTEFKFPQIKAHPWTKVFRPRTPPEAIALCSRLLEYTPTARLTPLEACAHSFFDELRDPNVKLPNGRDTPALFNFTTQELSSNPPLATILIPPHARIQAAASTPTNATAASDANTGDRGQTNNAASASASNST
Sequence of PFKFB3 (Q16875 whole entry): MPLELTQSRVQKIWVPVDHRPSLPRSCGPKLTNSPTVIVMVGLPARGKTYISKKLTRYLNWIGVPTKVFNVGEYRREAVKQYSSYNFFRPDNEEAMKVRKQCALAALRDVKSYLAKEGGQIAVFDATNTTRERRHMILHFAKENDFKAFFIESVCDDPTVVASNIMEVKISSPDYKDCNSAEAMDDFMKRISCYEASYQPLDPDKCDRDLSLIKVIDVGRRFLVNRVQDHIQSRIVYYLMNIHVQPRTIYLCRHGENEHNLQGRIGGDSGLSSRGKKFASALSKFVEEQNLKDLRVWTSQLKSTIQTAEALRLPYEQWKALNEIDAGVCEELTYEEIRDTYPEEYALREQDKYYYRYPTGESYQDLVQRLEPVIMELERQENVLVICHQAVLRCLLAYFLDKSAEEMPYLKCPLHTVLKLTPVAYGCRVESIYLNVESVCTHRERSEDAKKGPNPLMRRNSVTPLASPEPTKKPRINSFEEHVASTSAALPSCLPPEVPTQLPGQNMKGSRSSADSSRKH
T5 sequence (P07333 20-972): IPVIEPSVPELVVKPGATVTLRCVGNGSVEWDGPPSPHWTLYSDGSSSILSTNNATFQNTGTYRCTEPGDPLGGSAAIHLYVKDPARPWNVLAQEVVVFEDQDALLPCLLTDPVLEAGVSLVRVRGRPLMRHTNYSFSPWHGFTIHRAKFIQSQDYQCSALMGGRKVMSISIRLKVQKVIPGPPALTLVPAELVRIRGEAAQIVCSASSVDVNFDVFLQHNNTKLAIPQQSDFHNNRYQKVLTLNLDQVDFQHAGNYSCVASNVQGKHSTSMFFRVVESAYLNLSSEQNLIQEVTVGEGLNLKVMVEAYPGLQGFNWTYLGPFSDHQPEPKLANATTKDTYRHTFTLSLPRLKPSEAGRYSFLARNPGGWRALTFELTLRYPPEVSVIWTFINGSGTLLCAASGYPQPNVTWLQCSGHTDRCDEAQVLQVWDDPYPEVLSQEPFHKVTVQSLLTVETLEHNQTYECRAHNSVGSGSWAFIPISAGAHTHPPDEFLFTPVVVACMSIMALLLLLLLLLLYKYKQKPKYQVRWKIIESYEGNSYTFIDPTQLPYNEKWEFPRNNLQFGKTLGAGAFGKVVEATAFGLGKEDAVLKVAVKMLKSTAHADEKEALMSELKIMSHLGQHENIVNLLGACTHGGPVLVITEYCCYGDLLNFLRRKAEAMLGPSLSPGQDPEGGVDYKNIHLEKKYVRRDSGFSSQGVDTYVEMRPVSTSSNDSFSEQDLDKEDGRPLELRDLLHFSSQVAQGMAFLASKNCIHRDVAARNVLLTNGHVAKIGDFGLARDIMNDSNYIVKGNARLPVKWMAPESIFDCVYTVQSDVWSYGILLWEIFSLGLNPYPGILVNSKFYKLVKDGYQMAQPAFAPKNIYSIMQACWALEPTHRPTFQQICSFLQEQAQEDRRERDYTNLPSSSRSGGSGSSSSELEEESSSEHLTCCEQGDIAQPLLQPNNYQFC
T6 sequence (O15075 whole entry): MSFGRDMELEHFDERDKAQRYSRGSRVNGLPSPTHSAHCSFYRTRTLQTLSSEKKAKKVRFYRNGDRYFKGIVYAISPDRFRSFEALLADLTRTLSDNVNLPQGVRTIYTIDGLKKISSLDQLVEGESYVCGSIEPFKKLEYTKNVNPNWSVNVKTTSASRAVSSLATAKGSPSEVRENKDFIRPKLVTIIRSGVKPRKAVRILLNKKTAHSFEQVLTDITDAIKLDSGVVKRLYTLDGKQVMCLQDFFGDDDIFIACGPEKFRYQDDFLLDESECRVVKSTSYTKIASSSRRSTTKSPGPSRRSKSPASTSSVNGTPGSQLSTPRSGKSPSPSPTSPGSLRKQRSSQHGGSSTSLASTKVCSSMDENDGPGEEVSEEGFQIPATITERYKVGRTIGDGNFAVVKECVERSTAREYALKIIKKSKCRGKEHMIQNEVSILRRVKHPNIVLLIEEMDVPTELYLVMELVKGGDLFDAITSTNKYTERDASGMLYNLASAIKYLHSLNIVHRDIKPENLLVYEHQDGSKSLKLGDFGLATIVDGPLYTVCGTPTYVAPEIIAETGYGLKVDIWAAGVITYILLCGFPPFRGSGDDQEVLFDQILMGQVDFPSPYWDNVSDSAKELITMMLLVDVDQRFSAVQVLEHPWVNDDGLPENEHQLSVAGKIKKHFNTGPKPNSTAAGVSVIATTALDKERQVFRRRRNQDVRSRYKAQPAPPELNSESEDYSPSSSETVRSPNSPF
T2 sequence (P31749 whole entry): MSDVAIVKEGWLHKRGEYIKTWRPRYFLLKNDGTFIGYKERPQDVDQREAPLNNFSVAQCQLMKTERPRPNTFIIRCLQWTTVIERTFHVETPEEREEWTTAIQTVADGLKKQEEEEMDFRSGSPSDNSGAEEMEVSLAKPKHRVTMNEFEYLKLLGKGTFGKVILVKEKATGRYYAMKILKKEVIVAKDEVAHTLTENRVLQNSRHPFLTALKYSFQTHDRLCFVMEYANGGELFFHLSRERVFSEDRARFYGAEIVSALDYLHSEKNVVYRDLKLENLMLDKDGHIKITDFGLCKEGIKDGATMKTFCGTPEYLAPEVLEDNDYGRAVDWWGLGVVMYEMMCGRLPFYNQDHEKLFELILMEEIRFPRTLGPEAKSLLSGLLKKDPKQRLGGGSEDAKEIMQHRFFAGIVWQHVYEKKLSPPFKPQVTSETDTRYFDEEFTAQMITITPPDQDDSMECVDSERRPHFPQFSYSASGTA

In the case of `O=C(O)c1ccc(NS(=O)(=O)c2cccc(-c3cc(F)ccc3O)c2)cc1O` [KAN0438241, 4-{[(5′-Fluoro-2′-hydroxybiphenyl-3-yl)sulfonyl]amino}-2-hydroxybenzoic acid], the pIC50 – broadly, the negative decadic logarithm of the IC50, by convention in mol/L – in [1] (ADP-GLO assay) was 5.44. Moreover, the “selectivity window PFKFB3 versus PFKFB4” value in assay [1] (ratio of IC50 values) is “about 20 fold”. Further, the remaining binding at 2 µM turned out to be 96% in assay [2]; 100% in assay [3]; 100% in assay [4]; 89% in assay [5]; 90% in [6]; 95% in assay [7]. Further, the remaining binding at 2 µM came out at 93% in assay [8]; 96% in assay [9]; 99% in assay [10]; 91% in assay [11]; 100% in [12].

Take `O=C(OCCO)c1ccc(NS(=O)(=O)c2cccc(-c3cc(F)ccc3O)c2)cc1O` [KAN0438757, 2-Hydroxyethyl-4-{[(5′-fluoro-2′-hydroxybiphenyl-3-yl)sulfonyl]amino}-2-hydroxybenzoate]: the “intracellular target engagement of PFKFB3 (CETSA)” value in [13] is given as “demonstrated intracellular target engagement”. Also, in [14], the “decrease of all four dNTPs” value is 50–75%. For the same molecule, in [15], the “EdU intensity per cell in EdU-positive population (in words)” value was “decreased EdU intensity per cell”. In assay [16], the “IR-induced increase in EdU-positive cell population in G2/M phase (in words)” value is on record as “impaired”.
